“Also recorded” adds a separate entry of the source.
Assay: Frizz control test, panel ranking of tresses at 75% RH
Conditions: from panel ranking
Protocol: The formulations H to M as set out in Table 4 were prepared. Each hair conditioner formulation was prepared by combining the Part A ingredients while mixing and heating to 75-80° C., and separately combining the Part B ingredients and heating to the same temperature. The Part A and Part B ingredients were then combined while mixing at temperature and allowed to cool to 40° C. Once at 40° C., the Part C ingredients were added and the pH adjusted to about 4.5±0.5 using lactic acid.
For each formulation H to M, 7 Brazilian curly hair tresses available from International Hair Importers Inc., NYC, were cut to 1.5 cm wide and 20 cm long.
The tresses were washed with a simple cleansing shampoo (SLES/Betaine shampoo) using a 1:10 w/w shampoo to hair ratio for 1 minute. The tresses were then rinsed with warm water for 1 minute or until free of foam. 3 g of the respective formulation was then massaged into the hair tresses for 1 minute. The treated tresses were left to sit for 20 minutes and then the formulations rinsed out of the hair for 45 seconds. Once rinsed, the tresses were blown dry using a blow dryer and round brush, and then flat-ironed using a ceramic iron at 400° F. for 5 passes. […]
The panelists were asked to rank the tresses from 1 (least frizz) to 6 (most frizz). The mode and average of the panelists' rankings were calculated for each to give the overall ranking.

Which “frizz control, conclusion in words” value does the source give for “Isostearic Acid—DETA Tertiary Amine [Example 3a]” here?
Its value is “resisted frizz the best; also recorded: aids in frizz control”.

From patent US11478416B2, “Ingredients for use in personal care compositions” (Croda, Inc., priority 2016, dated 2022)
